Experiments:
[1] = Cytotoxicity screen, growth inhibition of HEK 293T cells; conditions: human, Cytotoxicity IC50 HEK 293T, human kidney
[2] = In vitro intrinsic clearance in human liver microsomes; format: in vitro ADME
[3] = Aqueous solubility by nephelometry; format: physicochemical; conditions: for Sol6.5: pH 6.5 phosphate buffer
[4] = Cytotoxicity screen, growth inhibition of HC-04 cells; conditions: human
[5] = Cytotoxicity screen, growth inhibition of HFF cells; conditions: human
[6] = test system: Tulahuen C4 strain of Trypanosoma cruzi; assay: microbe, parasite or virus in culture; conditions: read-out: T. cruzi IC50
[7] = test system: L. donovani MHOM-ET 67/L82; assay: Activity against L. donovani amastigotes, axenic assay
T. gondii RH-dTom = assay: Activity against T. gondii RH-dTom; format: cell-based, Toxoplasma gondii
T. cruzi CYP51 = T. cruzi CYP51 (Trypanosoma cruzi, UniProt Q7Z1V1); assay: T. cruzi CYP51 heme ligand binding; conditions: Soret band
[8] = test system: panel of cancer cell lines; conditions: read-out: IC50 against a panel of cancer cell lines; previously reported; cited from earlier work

Chain of T. cruzi CYP51 (Q7Z1V1 whole entry): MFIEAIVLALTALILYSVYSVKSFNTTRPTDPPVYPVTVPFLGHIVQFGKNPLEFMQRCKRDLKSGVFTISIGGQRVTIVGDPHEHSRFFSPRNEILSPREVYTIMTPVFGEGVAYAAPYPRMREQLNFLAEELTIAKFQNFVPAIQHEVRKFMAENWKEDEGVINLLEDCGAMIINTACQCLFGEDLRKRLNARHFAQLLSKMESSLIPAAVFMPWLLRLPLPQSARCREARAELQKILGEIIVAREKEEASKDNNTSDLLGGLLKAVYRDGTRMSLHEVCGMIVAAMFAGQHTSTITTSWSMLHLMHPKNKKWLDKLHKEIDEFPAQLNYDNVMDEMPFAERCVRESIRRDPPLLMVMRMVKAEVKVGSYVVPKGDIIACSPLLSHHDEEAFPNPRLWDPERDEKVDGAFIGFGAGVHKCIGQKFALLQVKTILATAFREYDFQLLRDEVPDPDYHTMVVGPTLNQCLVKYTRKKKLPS

Sol6.5 [3] | Compound | microsomal CLint [2] | IC50 [4] | IC50 [5] | T. cruzi CYP51 spectral response (T. cruzi CYP51) | also measured
12.5 to 25 µg/mL | O=C(Nc1cccnc1)c1ccc(CNS(=O)(=O)c2ccc(N3CCOCC3)cc2)cc1 [Compound 5] | 69 µL/min/mg | > 50 µM |  |  | IC50 [1]: < 1 µM; Sol2.0 ([3]; 0.01 M HCl (approx. pH 2.0)): 50 to 100 µg/mL
25 to 50 µg/mL | CN1CCN(c2ccc(S(=O)(=O)NCc3ccc(-c4nc(-c5cccnc5)no4)cc3)cc2)CC1 [Compound 19] |  | > 50 µM | > 50 µM |  | 
 | O=C(Cn1ccnc1[N+](=O)[O-])NCc1ccccc1 [benznidazole] |  |  |  |  | IC50 [6]: 1.2 to 4.2 µM
 | Cc1ncccc1NC(=O)c1ccc(CNS(=O)(=O)c2ccc(N3CCN(C)CC3)cc2)cc1 [Compound 14] |  |  |  | did not cause any changes | 

Compound | Sol6.5 [3] | microsomal CLint [2] | IC50 [4] | IC50 [5] | T. cruzi CYP51 spectral response (T. cruzi CYP51) | also measured
CN1CCN(c2ccc(S(=O)(=O)NCc3ccc(C(=O)Nc4cccnc4)cc3)cc2)CC1 [Compound 2] | 25 to 50 µg/mL | 45 µL/min/mg | > 50 µM | > 50 µM | moderate type II spectral response | Effect on growth of Leishmania donovani [7]: no effect on the growth; Effect on growth of Toxoplasma gondii (T. gondii RH-dTom): no effect on the growth; IC50 [8]: 0.01 to 1 µM
